Assay type in all cases: in vivo, rat
The test system of test [1] is DIO Sprague-Dawley rats. Kind of test: Example 5: 19-day Q2D body weight study with Fc-linked agonists. Conditions: mono-treatment 0.1 mg/kg Q2D SC, 19 days. How it is done: Study Design: Male DIO Sprague-Dawley rats were fed a high-fat diet (32.5% kcal fat, D12266B; Research Diets) for approximately 6 weeks prior to study start. Rats were dosed every other day (Q2D) SC for 19 days with Vehicle, GLP1-Fc (0.1 or 1 mg/kg), Fc-LAA (0.1 or 2 mg/kg) or a combination of GLP1-Fc and Fc-LAA (0.1+0.1 mg/kg, 0.1+2 mg/kg, 1+0.1 mg/kg or 1+2 mg/kg respectively) with an n=7/group. Body weight was monitored daily through-out study and shown below as % change of vehicle treatment. Data reported as mean±standard error of the mean (SEM). In this experiment, the LAA was an Fc-Amylin, and the GLP-1 agonist was dulaglutide (a GLP-1 agonist covalently linked to an Fc fragment of IgG4).

Test [2] deals with diet-induced obese (DIO) Sprague-Dawley rats. The test can be described thus: Example 2: 28-day combination study in DIO rats (body weight, EchoMRI body composition). Conditions: LAA 10 nmol/kg, GLP-1/GCG 5.4 nmol/kg or both. How it is done: Study Design: Male diet-induced obese (DIO) Sprague-Dawley rats were fed a high fat diet (45% fat, D12451; Research Diets) for 34 weeks prior to study start. […] Research Diets). […] Average body weight for all DIO rats at start of study was 722.4+10.1 grams. Body composition was measured by EchoMRI on day-7 and day 26. In this experiment, the LAA was that of SEQ ID NO: 11, and the GLP-1/GCG dual-agonist was cotadutide. Data reported as mean±standard error of the mean (SEM); data analysis performed using GraphPad Prism-statistical analysis performed using One-way ANOVA with Tukey ad hoc analysis.

Test [3] concerns DIO male pair-housed rats. Kind of test: Example 3 additional study: 28-day body weight, food intake and organ weights in DIO rats. How it is done:
(§1) Study design: DIO male pair-housed rats fed a 32.5% high-fat diet (D12266B) for 7 weeks reached a mean body weight (BW) of ˜595 g. Rats were dosed SC daily for 28 days with vehicle (Vh), GLP-1/GCG dual agonist (1.5 or 5 nmol/kg), LAA (2.5 or 7.5 nmol/kg), or combination (1.5+2.5 nmol/kg, 1.5+7.5 nmol/kg, 5+2.5 nmol/kg, or 5+7.5 nmol/kg, respectively). Food intake (FI) and BW were measured daily. In chow fed lean rats, gastric emptying (GE) was measured via X-ray fluoroscopic quantification following SC injections of Vh, GLP-1/GCG dual agonist at 1, 3, or 10 nmol/kg or LAA at 1, 3, or 10 nmol/kg. In a subsequent acute GE study, lean rats received a single dose of Vh, GLP-1/GCG dual agonist (2 nmol/kg), LAA (2 nmol/kg) or GLP-1/GCG dual agonist+LAA combination (2+2 nmol/kg). In this experiment, the LAA was that of SEQ ID NO: 11, and the GLP-1/GCG dual-agonist was cotadutide.

Test [4] has as its system DIO Sprague-Dawley rats. Kind of test: Example 3: 28-day body weight study in DIO rats. Conditions: day 28. The procedure: Study Design: Male DIO Sprague-Dawley rats were fed a high-fat diet (32.5% kcal fat, D12266B; Research Diets) for approximately 8 weeks prior to study start. Rats were dosed once daily SC for 28 days with Vehicle, GLP-1/GCG (1.5 nmol/kg or 5 nmol/kg), LAA (7.5 nmol/kg) or a combination of GLP-1/GCG and LAA (1.5 and 7.5 nmol/kg, or 5 nmol/kg and 7.5 nmol/kg, respectively) with an n=6/group. Body weight was monitored daily throughout the study. Data reported as mean±standard error of the mean (SEM); data analysis performed using GraphPad Prism-statistical analysis performed using One-way ANOVA with Tukey ad hoc analysis (*p<0.05, **p<0.01, ***0<0.001, ****p<0.0001). In this experiment, the LAA was that of SEQ ID NO: 11, and the GLP-1/GCG dual-agonist was cotadutide.

Test [5] has as its system chow fed lean rats. Kind of test: Example 3: acute gastric emptying by X-ray fluoroscopic quantification. As to conditions: acute SC. How it is done: as §1

The text below walks through data of patent publication US20260091086A1, “POLYPEPTIDE COMBINATIONS AND USES THEREOF” (MEDIMMUNE LIMITED, priority 2024, published 2026).

On to dulaglutide [GLP1-Fc], for which the “body weight change normalized to vehicle” value in test [1] worked out at 1.0%.

Take “HSQGTFTSD-X10-SEYLDSERARDFVAWLEAGG-acid, wherein X10=Lys[ε-γE-Palmitoyl] [GLP-1/GCG]”: the “body weight loss vs Vehicle” value in test [2] (SC QD, FIG. 1A) is listed as “lost significantly more body weight than Vehicle treated rats”. In addition, the “fat mass change (EchoMRI)” value in test [2] (day 26) was “lost both fat and lean mass compared to Vehicle treated animals”. In addition, the “lean mass change (EchoMRI)” value in test [2] (day 26) is “lost both fat and lean mass compared to Vehicle treated animals”. Moreover, the “Vh corrected BW change (BW gain)” value is −8.4% in test [3] (28 days SC daily, GLP-1/GCG dual agonist 1.5 nmol/kg) and −25.0% in test [3] (28 days SC daily, GLP-1/GCG dual agonist 5 nmol/kg). For the same substance, the “Cumulative FI normalized to Vh” value in test [3] (28 days SC daily, monotherapy and combination groups) is recorded as “decreased in a dose-dependent manner”. Further, the “Liver lipids (%) vs Vh” value in test [3] (all GLP-1/GCG dual agonist 5 nmol/kg treated groups) was “lower than Vh”. Besides, the “Liver weights vs. Vh” value in test [3] (all combination groups, GLP-1/GCG dual agonist monotherapy at 5 nmol/kg) is listed as “Liver weights decreased”. Further, the “mean change in body weight normalized to Vehicle” value is given as −8.4% in test [4] (GLP-1/GCG 1.5 nmol/kg SC QD) and −25% in test [4] (GLP-1/GCG 5 nmol/kg SC QD). For the same substance, the “GE AUC as % of Vehicle” value in test [5] (1 nmol/kg) came to 85%; in test [5] (3 nmol/kg), 49%; in test [5] (10 nmol/kg), 24%.
